Experimental data taken from ChEMBL document CHEMBL3046894, “Synthesis and Herbicidal Activity of Pyrimidinyl Salicylic and Thiosalicylic Acids” (J Pestic Sci, 1996).
Active and inactive are the calls of the source. The calls are words filed in the database; no cut-off is given here.

Columns and labels:
Gossypium hirsutum [1] = experiment: Post-emergence phytotoxicity against Gossypium hirsutum (cotton) assessed as mortality per 10 acre; assay type: organism-based; conditions: in vivo
Echinochloa crus-galli [2] = experiment: Pre-emergence herbicidal activity against Echinochloa crus-galli (barnyard grass) assessed as mortality at 6.3 g a.i/10 a; assay type: functional
Abutilon theophrasti [3] = experiment: Post-emergence herbicidal activity against Abutilon theophrasti (velvetleaf) assessed as mortality at 1.6 g a.i/10 a applied 11 days after germination as foliar spray; assay type: functional; conditions: 264 h
Abutilon theophrasti [4] = experiment: Post-emergence herbicidal activity against Abutilon theophrasti (velvetleaf) assessed as mortality at 6.3 g a.i/10 a applied 11 days after germination as foliar spray; assay type: functional; conditions: 264 h
Gossypium hirsutum [5] = experiment: (§1) Pre-emergence phytotoxicity against Gossypium hirsutum (cotton) assessed as mortality at 6.3 g a.i/10 a; assay type: organism-based; conditions: in vivo, other
Gossypium hirsutum [6] = experiment: Pre-emergence phytotoxicity against Gossypium hirsutum (cotton) assessed as mortality at 1.6 g a.i/10 a; assay type: organism-based; conditions: in vivo, other
Glycine max [7] = experiment: (§2) Pre-emergence phytotoxicity against Glycine max (soybean) assessed as mortality at 1.6 g a.i/10 a; assay type: organism-based; conditions: in vivo, other
[8] = Pre-emergence phytotoxicity against Glycine max (soybean) assessed as mortality at 6.3 g a.i/10 a; assay type: organism-based; conditions: in vivo, 6.3 g a.i/10 a
[9] = (§3) Pre-emergence phytotoxicity against Zea mays (maize) assessed as mortality at 1.6 g a.i/10 a; assay type: organism-based; conditions: in vivo, 1.6 g a.i/10 a
Gossypium hirsutum [10] = experiment: Post-emergence phytotoxicity against Gossypium hirsutum (cotton) assessed as mortality at 1.6 g a.i/10 a applied 11 days after germination as foliar spray; assay type: organism-based; conditions: in vivo, other, 264 h
Gossypium hirsutum [11] = experiment: Post-emergence phytotoxicity against Gossypium hirsutum (cotton) assessed as mortality at 6.3 g a.i/10 a applied 11 days after germination as foliar spray; assay type: organism-based; conditions: in vivo, other, 264 h
[12] = (§4) Post-emergence phytotoxicity against Glycine max (soybean) assessed as mortality at 1.6 g a.i/10 a applied 11 days after germination as foliar spray; assay type: organism-based; conditions: in vivo, 1.6 g a.i/10 a
[13] = (§5) Post-emergence phytotoxicity against Zea mays (maize) assessed as mortality at 1.6 g a.i/10 a applied 11 days after germination as foliar spray; assay type: organism-based; conditions: in vivo, 1.6 g a.i/10 a
Echinochloa crus-galli [14] = experiment: Post-emergence herbicidal activity against Echinochloa crus-galli (barnyard grass) assessed as mortality at 1.6 g a.i/10 a applied 11 days after germination as foliar spray; assay type: functional; conditions: 264 h
Echinochloa crus-galli [15] = experiment: Post-emergence herbicidal activity against Echinochloa crus-galli (barnyard grass) assessed as mortality at 6.3 g a.i/10 a applied 11 days after germination as foliar spray; assay type: functional; conditions: 264 h
Cyperus iria [16] = experiment: Pre-emergence herbicidal activity against Cyperus iria assessed as growth inhibition at 25 g a.i/10 a; assay type: functional, organism-based
Chenopodium album [17] = experiment: Pre-emergence herbicidal activity against Chenopodium album assessed as growth inhibition at 25 g a.i/10 a; assay type: functional, organism-based
Amaranthus retroflexus [18] = experiment: Pre-emergence herbicidal activity against Amaranthus retroflexus assessed as growth inhibition at 25 g a.i/10 a; assay type: functional, organism-based
Persicaria nodosa [19] = experiment: Pre-emergence herbicidal activity against Persicaria nodosa assessed as growth inhibition at 25 g a.i/10 a; assay type: functional, organism-based
Digitaria sanguinalis [20] = experiment: Pre-emergence herbicidal activity against Digitaria sanguinalis (hairy crabgrass) assessed as growth inhibition at 25 g a.i/10 a; assay type: functional, organism-based
Echinochloa crus-galli [21] = experiment: Pre-emergence herbicidal activity against Echinochloa crus-galli (barnyard grass) assessed as growth inhibition at 25 g a.i/10 a; assay type: functional, organism-based
Cyperus iria [22] = experiment: Post-emergence herbicidal activity against Cyperus iria assessed as growth inhibition at 25 g a.i/10 a applied 11 days after germination as foliar spray; assay type: functional, organism-based
Chenopodium album [23] = experiment: Post-emergence herbicidal activity against Chenopodium album assessed as growth inhibition at 25 g a.i/10 a applied 11 days after germination as foliar spray; assay type: functional, organism-based
Amaranthus retroflexus [24] = experiment: Post-emergence herbicidal activity against Amaranthus retroflexus assessed as growth inhibition at 25 g a.i/10 a applied 11 days after germination as foliar spray; assay type: functional, organism-based
Persicaria nodosa [25] = experiment: Post-emergence herbicidal activity against Persicaria nodosa assessed as growth inhibition at 25 g a.i/10 a applied 11 days after germination as foliar spray; assay type: functional, organism-based
Digitaria sanguinalis [26] = experiment: Post-emergence herbicidal activity against Digitaria sanguinalis (hairy crabgrass) assessed as growth inhibition at 25 g a.i/10 a applied 11 days after germination as foliar spray; assay type: functional, organism-based
Echinochloa crus-galli [27] = experiment: Post-emergence herbicidal activity against Echinochloa crus-galli (barnyard grass) assessed as growth inhibition at 25 g a.i/10 a applied 11 days after germination as foliar spray; assay type: functional, organism-based
Ipomoea lacunosa [28] = experiment: Pre-emergence herbicidal activity against Ipomoea lacunosa assessed as mortality per 10 acre; assay type: functional
Persicaria nodosa [29] = experiment: Pre-emergence herbicidal activity against Persicaria nodosa assessed as mortality per 10 acre; assay type: functional
Amaranthus retroflexus [30] = experiment: Pre-emergence herbicidal activity against Amaranthus retroflexus assessed as mortality per 10 acre; assay type: functional
Echinochloa crus-galli [31] = experiment: Pre-emergence herbicidal activity against Echinochloa crus-galli (barnyard grass) assessed as mortality per 10 acre; assay type: functional
Gossypium hirsutum [32] = experiment: Pre-emergence phytotoxicity against Gossypium hirsutum (cotton) assessed as mortality per 10 acre; assay type: organism-based; conditions: in vivo
Xanthium strumarium [33] = experiment: Post-emergence herbicidal activity against Xanthium strumarium (cocklebur) assessed as mortality per 10 acre; assay type: functional
Ipomoea lacunosa [34] = experiment: Post-emergence herbicidal activity against Ipomoea lacunosa assessed as mortality per 10 acre; assay type: functional
Persicaria nodosa [35] = experiment: Post-emergence herbicidal activity against Persicaria nodosa assessed as mortality per 10 acre; assay type: functional
Amaranthus retroflexus [36] = experiment: Post-emergence herbicidal activity against Amaranthus retroflexus assessed as mortality per 10 acre; assay type: functional
Echinochloa crus-galli [37] = experiment: Post-emergence herbicidal activity against Echinochloa crus-galli (barnyard grass) assessed as mortality per 10 acre; assay type: functional
Xanthium strumarium [38] = experiment: Pre-emergence herbicidal activity against Xanthium strumarium (cocklebur) assessed as mortality per 10 acre; assay type: functional
Abutilon theophrasti [39] = experiment: Pre-emergence herbicidal activity against Abutilon theophrasti (velvetleaf) assessed as mortality at 6.3 g a.i/10 a; assay type: functional
[40] = as §1; assay type: organism-based; conditions: in vivo, 6.3 g a.i/10 a, read-out: Activity
[41] = as §2; assay type: organism-based; conditions: in vivo, 1.6 g a.i/10 a, read-out: Activity
Zea mays [42] = experiment: as §3; assay type: organism-based; conditions: in vivo, other
Zea mays [43] = experiment: Pre-emergence phytotoxicity against Zea mays (maize) assessed as mortality at 6.3 g a.i/10 a; assay type: organism-based; conditions: in vivo, other
Glycine max [44] = experiment: Post-emergence phytotoxicity against Glycine max (soybean) assessed as mortality at 6.3 g a.i/10 a applied 11 days after germination as foliar spray; assay type: organism-based; conditions: in vivo, other, 264 h
Glycine max [45] = experiment: as §4; assay type: organism-based; conditions: in vivo, other, 264 h
Zea mays [46] = experiment: as §5; assay type: organism-based; conditions: in vivo, other, 264 h
Ipomoea lacunosa [47] = experiment: Pre-emergence herbicidal activity against Ipomoea lacunosa assessed as mortality at 1.6 g a.i/10 a; assay type: functional
Ipomoea lacunosa [48] = experiment: Pre-emergence herbicidal activity against Ipomoea lacunosa assessed as mortality at 6.3 g a.i/10 a; assay type: functional
Abutilon theophrasti [49] = experiment: Pre-emergence herbicidal activity against Abutilon theophrasti (velvetleaf) assessed as mortality at 1.6 g a.i/10 a; assay type: functional
Zea mays [50] = experiment: Post-emergence phytotoxicity against Zea mays (maize) assessed as mortality at 6.3 g a.i/10 a applied 11 days after germination as foliar spray; assay type: organism-based; conditions: in vivo, other, 264 h
Xanthium strumarium [51] = experiment: Pre-emergence herbicidal activity against Xanthium strumarium (cocklebur) assessed as mortality at 1.6 g a.i/10 a; assay type: functional
Xanthium strumarium [52] = experiment: Pre-emergence herbicidal activity against Xanthium strumarium (cocklebur) assessed as mortality at 6.3 g a.i/10 a; assay type: functional

With `COc1cc(OC)nc(Oc2cccc(Cl)c2C(=O)O)n1` the ED20 (Gossypium hirsutum [1]) was 0.2 gAi, the mortality at 63 g/ha (Echinochloa crus-galli [2]; Echinochloa crus-galli, pre-emergence) was > 90% and the mortality at 16 g/ha (Abutilon theophrasti [3]) was > 90%. The mortality at 63 g/ha (Abutilon theophrasti [4]) was > 90%, the Activity (Gossypium hirsutum [5]) was “Non-toxic” and the Activity (Gossypium hirsutum [6]) was “Non-toxic”. For the same compound, the Activity (Glycine max [7]) was “Toxic”, the mortality ([8]; read-out: mortality) was > 90% and the mortality ([9]; read-out: mortality) was > 90%. For the same compound, the Activity (Gossypium hirsutum [10]) was “Toxic”, the Activity (Gossypium hirsutum [11]) was “Toxic” and the mortality at 264 h [12] was > 90%. For the same compound, the mortality at 264 h [13] was > 90%, the mortality at 16 g/ha (Echinochloa crus-galli [14]) was > 90% and the mortality at 63 g/ha (Echinochloa crus-galli [15]) was > 90%. The “growth inhibition (GI)” value (Cyperus iria [16]) was “Active”, the “growth inhibition (GI)” value (Chenopodium album [17]) was “Active” and the “growth inhibition (GI)” value (Amaranthus retroflexus [18]) was “Active”. For the same compound, the “growth inhibition (GI)” value (Persicaria nodosa [19]) was “Active”, the “growth inhibition (GI)” value (Digitaria sanguinalis [20]) was “Active” and the “growth inhibition (GI)” value (Echinochloa crus-galli [21]) was “Active”. For the same compound, the “growth inhibition (GI)” value (Cyperus iria [22]) was “Active”, the “growth inhibition (GI)” value (Chenopodium album [23]) was “Active” and the “growth inhibition (GI)” value (Amaranthus retroflexus [24]) was “Active”. The “growth inhibition (GI)” value (Persicaria nodosa [25]) was “Active”, the “growth inhibition (GI)” value (Digitaria sanguinalis [26]) was “Active” and the “growth inhibition (GI)” value (Echinochloa crus-galli [27]) was “Active”. It also gave an ED90 (Ipomoea lacunosa [28]) of 25 gAi, an ED90 (Persicaria nodosa [29]) of 0.4 gAi and an ED90 (Amaranthus retroflexus [30]) of 0.4 gAi. The ED90 (Echinochloa crus-galli [31]) was “inactive”, the ED20 (Gossypium hirsutum [32]) was “Toxic” and the ED90 (Xanthium strumarium [33]) was 1.5 gAi. For the same compound, the ED90 (Ipomoea lacunosa [34]) was 0.8 gAi, the ED90 (Persicaria nodosa [35]) was 0.2 gAi and the ED90 (Amaranthus retroflexus [36]) was 0.2 gAi. For the same compound, the ED90 (Echinochloa crus-galli [37]) was 1.5 gAi, the ED90 (Xanthium strumarium [38]) was 25 gAi and the mortality at 63 g/ha (Abutilon theophrasti [39]; Abutilon theophrasti, pre-emergence) was > 90%.
In the case of `CCOc1cccc(Sc2nc(OC)cc(OC)n2)c1C(=O)O`, the Activity (Echinochloa crus-galli [2]) is reported as >90%, the mortality at 16 g/ha (Abutilon theophrasti [3]) is reported as > 90% and the mortality at 63 g/ha (Abutilon theophrasti [4]) is reported as > 90%. The mortality [40] was < 50%, the Activity (Gossypium hirsutum [6]) was < 50% and the mortality [41] was < 50%. The mortality ([8]; read-out: Activity) was < 50%, the Activity (Zea mays [42]) was “Non-toxic” and the Activity (Zea mays [43]) was “Toxic”. For the same compound, the Activity (Gossypium hirsutum [10]) was “Toxic”, the Activity (Gossypium hirsutum [11]) was “Toxic” and the Activity (Glycine max [44]) was “Toxic”. The Activity (Glycine max [45]) was “Toxic”, the Activity (Zea mays [46]) was “Toxic” and the mortality at 16 g/ha (Echinochloa crus-galli [14]) was < 5%. For the same compound, the Activity (Ipomoea lacunosa [47]) was <50%, the Activity (Ipomoea lacunosa [48]) was <50% and the Activity (Abutilon theophrasti [49]) was <50%. For the same compound, the Activity (Abutilon theophrasti [39]) was <50%.
With `CCSc1cccc(Sc2nc(OC)cc(OC)n2)c1C(=O)O` the mortality at 63 g/ha (Abutilon theophrasti [4]) was > 90%, the mortality [40] was < 50% and the Activity (Gossypium hirsutum [6]) was < 50%. The mortality [41] was < 50%, the mortality ([8]; read-out: Activity) was < 50% and the mortality ([9]; read-out: Activity) was < 50%. The Activity (Zea mays [43]) was “Non-toxic”, the Activity (Gossypium hirsutum [10]) was “Non-toxic” and the Activity (Gossypium hirsutum [11]) was “Non-toxic”. For the same compound, the Activity (Glycine max [44]) was “Toxic”, the Activity (Glycine max [45]) was “Toxic” and the Activity (Zea mays [46]) was “Toxic”. For the same compound, the Activity (Zea mays [50]) was “Toxic”, the mortality at 16 g/ha (Echinochloa crus-galli [14]) was < 5% and the mortality at 63 g/ha (Echinochloa crus-galli [15]) was < 5%. The Activity (Xanthium strumarium [51]) was <50%, the Activity (Xanthium strumarium [52]) was <50% and the Activity (Ipomoea lacunosa [47]) was <50%. For the same compound, the Activity (Abutilon theophrasti [49]) was <50%.
